Test results from ChEMBL document CHEMBL4699582, “Discovery of OATD-01, a First-in-Class Chitinase Inhibitor as Potential New Therapeutics for Idiopathic Pulmonary Fibrosis” (J Med Chem, 2020).
Calls of active or inactive are those of the source. No cut-off for these calls is given here.

Tests used:
[1] = Drug uptake in C57BL/6N mouse lung at 30 mg/kg, po bid administered via gavage measured 24 hrs post dose; format: ADME, organism-based; details: in vivo
[2] = molecular target: Cytochrome P450 2B6 (Homo sapiens, UniProt P20813); assay: Inhibition of CYP2B6 (unknown origin); format: ADME
[3] = organism: Mus musculus; details: C57BL/6N, dose 30.0 mg/kg
[4] = Dose normalized Cmax in Beagle dog at 10 mg/kg, po administered as single dose by LC-MS/MS analysis; format: ADME, organism-based, Canis lupus familiaris; details: in vivo
[5] = Volume of distribution at steady state in Beagle dog at 3 mg/kg, iv administered as single bolus dose measured upto 24 hrs by LC-MS/MS analysis; format: ADME, organism-based, Canis lupus familiaris; details: in vivo, read-out: Vdss
[6] = Oral bioavailability in Beagle dog at 10 mg/kg, administered as single dose by LC-MS/MS analysis; format: ADME, organism-based, Canis lupus familiaris; details: in vivo
[7] = Volume of distribution at steady state in Balb/c mouse at 3 mg/kg, iv administered as single bolus dose measured upto 24 hrs by LC-MS/MS analysis; format: ADME, organism-based; details: in vivo, read-out: Vdss
[8] = Elimination half-life in Sprague-Dawley rat at 2 mg/kg, iv administered as single bolus dose by LC-MS/MS analysis; format: ADME, organism-based; details: in vivo, read-out: beta t1/2 (converted)
[9] = Clearance (0 to infinity) in Sprague-Dawley rat at 2 mg/kg, iv administered as single bolus dose by LC-MS/MS analysis; format: ADME, organism-based; details: in vivo
[10] = Elimination half-life in Sprague-Dawley rat at 6 mg/kg, po administered as single dose by LC-MS/MS analysis; format: ADME, organism-based; details: in vivo, read-out: beta t1/2 (converted)
[11] = Initial plasma concentration in Sprague-Dawley rat at 2 mg/kg, iv administered as single bolus dose by LC-MS/MS analysis; format: ADME, organism-based
[12] = Tmax in Sprague-Dawley rat at 6 mg/kg, po administered as single dose by LC-MS/MS analysis; format: ADME, organism-based; details: in vivo
[13] = molecular target: Cytochrome P450 1A2 (Homo sapiens, UniProt P05177); assay: Inhibition of CYP1A2 (unknown origin); format: ADME
[14] = molecular target: Multidrug resistance-associated protein 1 (Homo sapiens, UniProt P33527); assay: Inhibition of MRP1 (unknown origin) at 1 to 10 uM; details: dose 1-10 µM
[15] = molecular target: Cytochrome P450 2C8 (Homo sapiens, UniProt P10632); assay: Inhibition of CYP2C8 (unknown origin); format: ADME
Sequence of Cytochrome P450 2C8 (P10632 whole entry): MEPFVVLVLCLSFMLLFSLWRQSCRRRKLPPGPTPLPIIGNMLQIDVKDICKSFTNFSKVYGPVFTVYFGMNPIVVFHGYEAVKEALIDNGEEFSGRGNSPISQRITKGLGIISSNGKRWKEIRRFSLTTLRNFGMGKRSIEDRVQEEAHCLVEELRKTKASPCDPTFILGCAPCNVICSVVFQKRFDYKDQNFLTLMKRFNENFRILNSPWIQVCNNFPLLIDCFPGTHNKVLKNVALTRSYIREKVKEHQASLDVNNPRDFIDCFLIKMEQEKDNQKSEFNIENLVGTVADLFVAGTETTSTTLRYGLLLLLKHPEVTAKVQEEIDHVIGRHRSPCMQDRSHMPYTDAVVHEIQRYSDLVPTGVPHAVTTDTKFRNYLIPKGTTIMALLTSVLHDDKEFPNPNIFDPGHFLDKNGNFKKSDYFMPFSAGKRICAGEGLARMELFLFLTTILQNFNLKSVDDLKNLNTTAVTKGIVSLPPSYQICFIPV

[16] = Dose normalized AUC (0 to 24 hrs) in Balb/c mouse at 10 mg/kg, po administered as single dose by LC-MS/MS analysis; format: ADME, organism-based; details: in vivo
[17] = Cmax in Sprague-Dawley rat at 6 mg/kg, po administered as single dose by LC-MS/MS analysis; format: ADME, organism-based; set-up: route oral, dose 6 mg/kg; details: in vivo
[18] = organism: Mus musculus; details: C57BL/6N, dose 30.0 mg/kg; remark: listed apart in the source
[19] = AUC (0 to 24 hrs) in Balb/c mouse at 3 mg/kg, iv administered as single bolus dose by LC-MS/MS analysis; format: ADME, organism-based; set-up: time < 24 hr, route intravenous, dose 3 mg/kg; details: in vivo
[20] = organism: Mus musculus; details: C57BL/6N, dose 30.0 mg/kg; remark: listed apart in the source
[21] = Volume of distribution at steady state in Sprague-Dawley rat at 2 mg/kg, iv administered as single bolus dose measured upto 24 hrs by LC-MS/MS analysis; format: ADME, organism-based; details: in vivo, read-out: Vdss
[22] = molecular target: Organic anion transporter 3 (Homo sapiens, UniProt Q8TCC7); assay: Inhibition of OAT3 (unknown origin) at 1 to 10 uM; details: dose 1-10 µM
[23] = molecular target: Cytochrome P450 3A4 (Homo sapiens, UniProt P08684); assay: Inhibition of CYP3A4 (unknown origin); format: ADME
Sequence of Cytochrome P450 3A4 (P08684 whole entry): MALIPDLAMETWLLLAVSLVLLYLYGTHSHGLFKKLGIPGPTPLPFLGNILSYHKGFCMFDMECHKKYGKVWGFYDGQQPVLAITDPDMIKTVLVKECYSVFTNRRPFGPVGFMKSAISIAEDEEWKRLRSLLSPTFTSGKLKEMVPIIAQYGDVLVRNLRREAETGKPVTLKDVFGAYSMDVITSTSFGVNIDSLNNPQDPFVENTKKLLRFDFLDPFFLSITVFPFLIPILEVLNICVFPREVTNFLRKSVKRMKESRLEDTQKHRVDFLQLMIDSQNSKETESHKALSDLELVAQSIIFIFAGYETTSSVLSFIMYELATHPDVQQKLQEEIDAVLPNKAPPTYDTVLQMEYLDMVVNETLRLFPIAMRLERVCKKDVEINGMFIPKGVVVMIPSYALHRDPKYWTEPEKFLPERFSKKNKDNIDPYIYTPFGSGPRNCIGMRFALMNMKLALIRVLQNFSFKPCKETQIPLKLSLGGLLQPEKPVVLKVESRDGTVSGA

[24] = Oral bioavailability in Sprague-Dawley rat at 6 mg/kg, administered as single dose by LC-MS/MS analysis; format: ADME, organism-based; details: in vivo
[25] = Dose normalized AUC (0 to 24 hrs) in Sprague-Dawley rat at 6 mg/kg, po administered as single dose by LC-MS/MS analysis; format: ADME, organism-based; details: in vivo
[26] = Dose normalized Cmax in Beagle dog at 3 mg/kg, iv administered as single bolus dose by LC-MS/MS analysis; format: ADME, organism-based, Canis lupus familiaris; details: in vivo
[27] = Drug uptake in C57BL/6N mouse plasma at 30 mg/kg, po bid administered via gavage measured 24 hrs post dose; format: ADME, organism-based; details: in vivo
[28] = molecular target: ATP-binding cassette sub-family C member 3 (Homo sapiens, UniProt O15438); assay: Inhibition of MRP3 (unknown origin) at 1 to 10 uM; details: dose 1-10 µM
Sequence of ATP-binding cassette sub-family C member 3 (O15438 whole entry): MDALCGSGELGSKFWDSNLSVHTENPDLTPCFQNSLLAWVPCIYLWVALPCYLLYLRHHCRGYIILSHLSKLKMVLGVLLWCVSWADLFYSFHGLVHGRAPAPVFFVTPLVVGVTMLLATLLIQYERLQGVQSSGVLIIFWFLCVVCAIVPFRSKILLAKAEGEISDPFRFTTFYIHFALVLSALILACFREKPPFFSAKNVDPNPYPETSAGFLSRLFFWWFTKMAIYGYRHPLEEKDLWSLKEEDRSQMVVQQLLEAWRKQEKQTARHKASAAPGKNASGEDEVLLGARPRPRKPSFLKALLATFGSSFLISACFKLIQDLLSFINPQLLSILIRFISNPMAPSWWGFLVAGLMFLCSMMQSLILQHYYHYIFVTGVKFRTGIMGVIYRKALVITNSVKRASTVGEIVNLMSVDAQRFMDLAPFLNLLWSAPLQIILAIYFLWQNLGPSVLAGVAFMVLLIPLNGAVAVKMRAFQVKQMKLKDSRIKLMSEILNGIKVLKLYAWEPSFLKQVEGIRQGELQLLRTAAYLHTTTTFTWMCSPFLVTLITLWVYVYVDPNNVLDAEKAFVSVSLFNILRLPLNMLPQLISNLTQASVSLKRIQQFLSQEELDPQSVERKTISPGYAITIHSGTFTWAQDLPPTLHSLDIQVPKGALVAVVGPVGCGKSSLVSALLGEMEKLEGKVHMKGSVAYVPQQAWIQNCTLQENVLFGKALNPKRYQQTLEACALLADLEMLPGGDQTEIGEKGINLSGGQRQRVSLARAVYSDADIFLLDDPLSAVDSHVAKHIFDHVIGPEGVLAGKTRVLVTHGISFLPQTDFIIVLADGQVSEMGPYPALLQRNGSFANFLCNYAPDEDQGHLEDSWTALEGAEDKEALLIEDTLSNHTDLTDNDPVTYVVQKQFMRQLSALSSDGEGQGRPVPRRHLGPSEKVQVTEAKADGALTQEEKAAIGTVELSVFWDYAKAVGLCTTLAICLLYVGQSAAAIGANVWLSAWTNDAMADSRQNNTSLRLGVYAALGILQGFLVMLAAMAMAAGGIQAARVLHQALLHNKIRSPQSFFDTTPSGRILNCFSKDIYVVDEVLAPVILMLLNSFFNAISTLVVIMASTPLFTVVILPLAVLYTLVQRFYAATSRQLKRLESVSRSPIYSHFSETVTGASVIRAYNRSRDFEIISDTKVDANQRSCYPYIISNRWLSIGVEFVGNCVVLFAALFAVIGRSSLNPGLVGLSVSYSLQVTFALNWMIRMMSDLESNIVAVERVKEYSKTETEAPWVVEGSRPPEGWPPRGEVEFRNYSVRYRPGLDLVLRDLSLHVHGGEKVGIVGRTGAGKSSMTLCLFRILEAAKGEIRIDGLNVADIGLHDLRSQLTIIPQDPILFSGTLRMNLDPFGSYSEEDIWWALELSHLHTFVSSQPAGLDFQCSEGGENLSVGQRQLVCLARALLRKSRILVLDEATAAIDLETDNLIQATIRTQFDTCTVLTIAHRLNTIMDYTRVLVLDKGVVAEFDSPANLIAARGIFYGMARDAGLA

[29] = AUC (0 to 24 hrs) in Beagle dog at 3 mg/kg, iv administered as single bolus dose by LC-MS/MS analysis; format: ADME, organism-based, Canis lupus familiaris; set-up: time < 24 hr, route intravenous, dose 3 mg/kg; details: in vivo
[30] = molecular target: Broad substrate specificity ATP-binding cassette transporter ABCG2 (Homo sapiens, UniProt Q9UNQ0); assay: Inhibition of BCRP (unknown origin) at 1 to 10 uM; details: dose 1-10 µM
Sequence of Broad substrate specificity ATP-binding cassette transporter ABCG2 (Q9UNQ0 whole entry): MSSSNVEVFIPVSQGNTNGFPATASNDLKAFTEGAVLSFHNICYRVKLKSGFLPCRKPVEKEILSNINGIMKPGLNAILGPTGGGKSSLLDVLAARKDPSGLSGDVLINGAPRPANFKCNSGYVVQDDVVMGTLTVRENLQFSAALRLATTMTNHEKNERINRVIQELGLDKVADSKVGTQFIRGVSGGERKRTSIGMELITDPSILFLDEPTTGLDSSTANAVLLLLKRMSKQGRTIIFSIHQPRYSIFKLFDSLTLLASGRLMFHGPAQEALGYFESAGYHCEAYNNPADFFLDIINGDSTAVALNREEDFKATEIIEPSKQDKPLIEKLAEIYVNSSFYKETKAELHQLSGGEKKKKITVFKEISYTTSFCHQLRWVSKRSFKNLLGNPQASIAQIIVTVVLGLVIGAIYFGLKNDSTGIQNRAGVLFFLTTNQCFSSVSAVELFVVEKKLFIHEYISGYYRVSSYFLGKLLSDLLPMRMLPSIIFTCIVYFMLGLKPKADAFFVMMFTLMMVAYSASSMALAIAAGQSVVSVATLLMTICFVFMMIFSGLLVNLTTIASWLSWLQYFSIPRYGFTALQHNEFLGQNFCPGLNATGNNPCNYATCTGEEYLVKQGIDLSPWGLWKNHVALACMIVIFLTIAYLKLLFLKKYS

[31] = molecular target: Solute carrier organic anion transporter family member 1B3 (Homo sapiens, UniProt Q9NPD5); assay: Inhibition of OATP1B3 (unknown origin) at 1 to 10 uM; details: dose 1-10 µM
Sequence of Solute carrier organic anion transporter family member 1B3 (Q9NPD5 whole entry): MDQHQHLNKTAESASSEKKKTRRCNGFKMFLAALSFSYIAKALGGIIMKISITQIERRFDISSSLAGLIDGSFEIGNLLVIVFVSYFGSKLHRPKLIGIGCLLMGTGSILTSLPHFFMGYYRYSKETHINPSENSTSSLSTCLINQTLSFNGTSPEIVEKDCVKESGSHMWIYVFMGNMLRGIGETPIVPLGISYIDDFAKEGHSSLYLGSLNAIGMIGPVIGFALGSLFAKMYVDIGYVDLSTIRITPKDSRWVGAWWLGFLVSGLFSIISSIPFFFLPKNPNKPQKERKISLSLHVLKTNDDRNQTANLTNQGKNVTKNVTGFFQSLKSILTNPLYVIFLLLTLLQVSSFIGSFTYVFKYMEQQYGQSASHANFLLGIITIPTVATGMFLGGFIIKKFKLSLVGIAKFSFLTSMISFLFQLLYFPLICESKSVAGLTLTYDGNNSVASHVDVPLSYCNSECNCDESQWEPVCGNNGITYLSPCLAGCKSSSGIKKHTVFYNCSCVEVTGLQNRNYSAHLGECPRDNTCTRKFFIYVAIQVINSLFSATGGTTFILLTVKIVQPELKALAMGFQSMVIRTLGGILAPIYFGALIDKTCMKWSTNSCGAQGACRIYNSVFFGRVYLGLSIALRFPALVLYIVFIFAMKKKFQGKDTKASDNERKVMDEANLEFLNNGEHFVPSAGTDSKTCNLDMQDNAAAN

[32] = Cmax in Balb/c mouse at 10 mg/kg, po administered as single dose by LC-MS/MS analysis; format: ADME, organism-based; set-up: route oral, dose 10 mg/kg; details: in vivo
[33] = Dose normalized AUC (0 to 24 hrs) in Beagle dog at 3 mg/kg, iv administered as single bolus dose by LC-MS/MS analysis; format: ADME, organism-based, Canis lupus familiaris; details: in vivo
[34] = molecular target: Cytochrome P450 2C9 (Homo sapiens, UniProt P11712); assay: Inhibition of CYP2C9 (unknown origin); format: ADME
Sequence of Cytochrome P450 2C9 (P11712 whole entry): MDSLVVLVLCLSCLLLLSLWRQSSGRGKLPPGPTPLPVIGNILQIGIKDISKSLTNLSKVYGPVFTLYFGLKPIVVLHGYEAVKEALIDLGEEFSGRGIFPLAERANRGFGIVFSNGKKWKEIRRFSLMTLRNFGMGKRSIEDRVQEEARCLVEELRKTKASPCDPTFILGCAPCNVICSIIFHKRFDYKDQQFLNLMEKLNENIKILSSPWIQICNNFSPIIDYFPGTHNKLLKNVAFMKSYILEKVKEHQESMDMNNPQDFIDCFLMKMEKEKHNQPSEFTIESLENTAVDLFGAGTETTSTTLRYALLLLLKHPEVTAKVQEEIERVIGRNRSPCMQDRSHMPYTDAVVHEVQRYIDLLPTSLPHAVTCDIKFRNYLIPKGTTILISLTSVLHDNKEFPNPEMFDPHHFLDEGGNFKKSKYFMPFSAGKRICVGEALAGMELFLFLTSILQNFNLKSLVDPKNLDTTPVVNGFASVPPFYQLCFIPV

[35] = In-vivo inhibition of CHIT1 in C57BL/6N mouse assessed as decrease in chitinolytic activity in plasma at 30 mg/kg, po qd administered via gavage measured up to 12 hrs relative to control; format: functional; details: time hrs <=12
[36] = Clearance (0 to 24 hrs) in Balb/c mouse at 3 mg/kg, iv administered as single bolus dose by LC-MS/MS analysis; format: ADME, organism-based; details: in vivo
[37] = Elimination half-life in Beagle dog at 10 mg/kg, po administered as single dose by LC-MS/MS analysis; format: ADME, organism-based, Canis lupus familiaris; details: in vivo, read-out: beta t1/2 (converted)
[38] = AUC (0 to 24 hrs) in Sprague-Dawley rat at 2 mg/kg, iv administered as single bolus dose by LC-MS/MS analysis; format: ADME, organism-based; set-up: time < 24 hr, route intravenous, dose 2 mg/kg; details: in vivo
[39] = Clearance (0 to 24 hrs) in Beagle dog at 3 mg/kg, iv administered as single bolus dose by LC-MS/MS analysis; format: ADME, organism-based, Canis lupus familiaris; details: in vivo
[40] = Dose normalized AUC (0 to 24 hrs) in Beagle dog at 10 mg/kg, po administered as single dose by LC-MS/MS analysis; format: ADME, organism-based, Canis lupus familiaris; details: in vivo
[41] = Elimination half-life in Balb/c mouse at 10 mg/kg, po administered as single dose by LC-MS/MS analysis; format: ADME, organism-based; details: in vivo, read-out: beta t1/2 (converted)
[42] = molecular target: Acidic mammalian chitinase (Mus musculus, UniProt Q91XA9); assay: Inhibition of full-length C-terminal his-tagged mouse AMCase expressed in expressed in CHO-K1 cells assessed as reduction in chitinolytic activity using 4-methylumbelliferyl-beta-D-N,N'-diacetylchitobioside hydrate as substrate after 60 mins by fluorometric assay; format: cell-based
Sequence of Acidic mammalian chitinase (Q91XA9 whole entry): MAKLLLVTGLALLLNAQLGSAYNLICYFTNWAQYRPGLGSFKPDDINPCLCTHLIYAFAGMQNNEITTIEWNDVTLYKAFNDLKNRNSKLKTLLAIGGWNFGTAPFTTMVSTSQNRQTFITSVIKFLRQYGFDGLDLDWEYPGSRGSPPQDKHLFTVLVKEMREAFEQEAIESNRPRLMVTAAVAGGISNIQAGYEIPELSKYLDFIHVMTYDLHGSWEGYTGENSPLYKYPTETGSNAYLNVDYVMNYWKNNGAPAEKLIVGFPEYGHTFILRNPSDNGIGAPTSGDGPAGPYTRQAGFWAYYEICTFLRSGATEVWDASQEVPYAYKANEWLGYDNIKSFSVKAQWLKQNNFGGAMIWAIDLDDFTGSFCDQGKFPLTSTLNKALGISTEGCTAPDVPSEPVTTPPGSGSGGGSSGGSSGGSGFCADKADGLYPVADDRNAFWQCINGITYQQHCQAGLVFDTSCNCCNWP

[43] = Tmax in Balb/c mouse at 10 mg/kg, po administered as single dose by LC-MS/MS analysis; format: ADME, organism-based; details: in vivo

## C[C@H]1CN(C2CCN(c3nc(N)n[nH]3)CC2)[C@@H](Cc2ccc(Cl)cc2)CO1 [5-(4-((2S,5S)-5-(4-CHLOROBENZYL)-2-METHYLMORPHOLINO)PIPERIDIN-1-YL)-1H-1,2,4-TRIAZOL-3-AMINE]
[1]
  Drug uptake: Active
[2]
  inhibition (INH): Not Active
[3]
  inhibition: Active
[4]
  Cmax/dose: 0.76 kg.mg/L.mL
[5]
  Vd: 0.96 L/kg
[6]
  bioavailability: 91.4%
[7]
  Vd: 1.01 L/kg
[8]
  half-life: 4.49 h
[9]
  clearance: 5.67 mL/min/kg
[10]
  half-life: 4.47 h
[11]
  C0: 1000 ng/mL
[12]
  Tmax: 2 h
[13]
  inhibition (INH): Not Active
[14]
  inhibition (INH): Not Active
[15]
  inhibition (INH): Not Active
[16]
  AUC/dose: 2.22 kg·mg·h/L/mg
[17]
  Cmax: 2210 ng/mL
[18]
  inhibition: Active
[19]
  AUC(0-t) at 24 h: 8600 ng·h/mL
[20]
  inhibition: Active
[21]
  Vd: 1.82 L/kg
[22]
  inhibition (INH): Not Active
[23]
  inhibition (INH): Not Active
[24]
  bioavailability: 107%
[25]
  AUC/dose: 3.38 kg·mg·h/L/mg
[26]
  Cmax/dose: 0.82 kg.mg/L.mL
[27]
  Drug uptake: Active
[28]
  inhibition (INH): Not Active
[29]
  AUC(0-t) at 24 h: 31000 ng·h/mL
[30]
  inhibition (INH): Not Active
[31]
  inhibition (INH): Not Active
[32]
  Cmax: 3420 ng/mL
[33]
  AUC/dose: 10.34 kg·mg·h/L/mg
[34]
  inhibition (INH): Not Active
[35]
  inhibition in vivo at 30 mg/kg: 70%
[36]
  clearance: 5.83 mL/min/kg
[37]
  half-life: 22.9 h
[38]
  AUC(0-t) at 24 h: 5560 ng·h/mL
[39]
  clearance: 1.67 mL/min/kg
[40]
  AUC/dose: 9.41 kg·mg·h/L/mg
[41]
  half-life: 1.88 h
[42]
  IC50: 7.8 nM
  Ki: 5.7 nM
[43]
  Tmax: 2 h
